pIC50: −log10 of the molar value. Blank lines part the entries; values can stand above or below the compound they belong to.
What was measured:
[1] = tested on: IL-1β induced PGE2 production in human amnionic WISH cells; experiment: IL-1β Induced PGE2 Production in WISH Cells; format: cell-based; conditions: IL-1β 18 hour
Protocol: (§1) EIA reagents for prostaglandin determination were purchased from Perseptive Diagnostics, (Cambridge, Mass.). Prostaglandin E2 (PGE2) levels in lavage fluids were determined after the samples were dried under nitrogen and reconstituted with assay buffer. PGE2 levels in enzyme assays or cell culture media were measured against standards prepared in the same milieu. The immunoassays were conducted as recommended by the manufacturer. The EIA was conducted in 96 well microtiter plates (Nunc Roskilde, Denmark) and optical density was measured using a microplate reader (Vmax, Molecular Devices Corp., Menlo Park, Calif.).
Human amnionic WISH cells were grown to 80% confluence in 48 well plates. Following removal of the growth medium and two washings with Gey's Balanced Salt Solution, 5 ng IL-1β/ml (UBI, Lake Placid, N.Y.) was added to the cells with or without test compound in DMSO (0.01% v/v) in Neuman-Tytell Serumless Medium (GIBCO, Grand Island, N.Y.). Following an 18 hour incubation to allow for the maximal induction of PGHS-2, the conditioned medium was removed and assayed for PGE2 content by EIA anylysis as described above.
WISH cell values indicate percent inhibition at the particular dose level.

[2] = biological target: T1, recombinant human Cox-1 (r-hu Cox-1, PGHS-1) (Homo sapiens, UniProt P23219); experiment: Recombinant human PGHS-1 (r-hu Cox-1) enzyme assay, PGE2 by EIA; format: biochemical
T1 construct: made in house; host or cells: baculovirus/Sf9 insect cells (microsomes)
T1 sequence (P23219 24-599): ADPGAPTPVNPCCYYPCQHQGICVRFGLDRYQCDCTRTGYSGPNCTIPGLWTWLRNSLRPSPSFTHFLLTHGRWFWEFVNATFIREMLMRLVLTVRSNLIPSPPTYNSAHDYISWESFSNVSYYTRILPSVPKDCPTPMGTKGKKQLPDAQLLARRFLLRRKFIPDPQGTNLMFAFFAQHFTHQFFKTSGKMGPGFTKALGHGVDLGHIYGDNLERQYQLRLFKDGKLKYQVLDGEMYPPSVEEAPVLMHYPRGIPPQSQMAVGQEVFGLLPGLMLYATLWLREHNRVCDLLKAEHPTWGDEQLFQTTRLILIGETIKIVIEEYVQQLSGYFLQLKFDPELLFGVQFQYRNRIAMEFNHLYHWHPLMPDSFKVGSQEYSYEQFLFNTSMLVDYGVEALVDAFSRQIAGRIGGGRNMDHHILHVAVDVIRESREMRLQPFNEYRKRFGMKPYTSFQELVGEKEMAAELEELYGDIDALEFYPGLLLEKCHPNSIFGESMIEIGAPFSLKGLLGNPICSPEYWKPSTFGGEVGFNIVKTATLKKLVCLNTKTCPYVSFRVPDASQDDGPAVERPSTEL
Protocol: (§2) To compare the mean responses of the treatment groups, analysis of variance was applied. Percent inhibition values were determined by comparing the individual treatment mean values to the mean of the control group. Linear regression was used to estimate IC50's/ED50's in appropriate assays.
as §1
(§3) Inhibition of prostaglandin biosynthesis in vitro was evaluated using recombinant human Cox-1 (r-hu Cox-1) and Cox-2 (r-hu Cox-2) enzyme assays. […] The reaction was allowed to run for 2.5 minutes at room temperature prior to quenching with HCl and neutralization with NaOH. PGE2 production in the presence and absence of the drug was determined by EIA analysis. The EIA was conducted in 96 well microtiter plates (Nunc Roskilde, Denmark) and optical density was measured using a microplate reader (Vmax, Molecular Devices Corp., Menlo Park, Calif.). EIA reagent for prostaglandin determination were purchased from Perseptive Diagnostics (Cambridge, Mass.). PGE2 levels were measured against standards prepared in the same milieu. The immunoassays were conducted as recommended by the manufacturer.
(§4) The compounds are designated by the Example Number. […] Values for Cox-2 inhibition that are parenthetical indicate IC50 values.

[3] = biological target: T2, recombinant human Cox-2 (r-hu Cox-2, PGHS-2) (Homo sapiens, UniProt P35354); experiment: Recombinant human PGHS-2 (r-hu Cox-2) enzyme assay, PGE2 by EIA; format: biochemical; conditions: for pIC50: read-out: r-hu COX2 IC50 (parenthetical values)
T2 construct: made in house; host or cells: baculovirus/Sf9 insect cells (microsomes)
T2 sequence (P35354 18-604): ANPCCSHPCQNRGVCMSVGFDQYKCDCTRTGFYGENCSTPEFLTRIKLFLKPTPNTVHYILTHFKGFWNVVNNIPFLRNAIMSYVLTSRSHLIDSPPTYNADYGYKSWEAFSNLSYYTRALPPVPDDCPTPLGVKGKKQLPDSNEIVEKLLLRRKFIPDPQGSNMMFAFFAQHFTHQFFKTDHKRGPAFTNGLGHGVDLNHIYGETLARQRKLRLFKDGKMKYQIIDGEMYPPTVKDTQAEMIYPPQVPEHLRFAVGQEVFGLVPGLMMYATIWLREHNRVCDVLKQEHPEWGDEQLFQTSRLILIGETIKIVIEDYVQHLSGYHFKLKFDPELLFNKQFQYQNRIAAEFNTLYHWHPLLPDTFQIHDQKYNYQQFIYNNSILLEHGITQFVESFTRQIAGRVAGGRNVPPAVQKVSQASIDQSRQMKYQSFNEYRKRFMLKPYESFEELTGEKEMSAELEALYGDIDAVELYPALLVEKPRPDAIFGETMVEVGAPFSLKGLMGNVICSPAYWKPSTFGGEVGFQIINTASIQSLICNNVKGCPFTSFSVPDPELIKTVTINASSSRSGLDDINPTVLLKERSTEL
Protocol: as §2, §1, §3, §4

[4] = at 100 μM, read-out: r-hu COX1 percent inhibition
[5] = at 100 nM, read-out: r-hu COX2 percent inhibition

Compound: 1-(4-Fluorophenyl)-2-{[4-(4-fluorophenyl)-1-methyl-5-(4-(methylsulphonyl)phenyl)-1H-pyrazol-3-yl]oxy}ethan-1-one and; 1-(4-Fluorophenyl)-2-{[4-(4-fluorophenyl)-1-methyl-3-(4-(methylsulphonyl)phenyl)-1H-pyrazol-5-yl]oxy}ethan-1-one [Example 35]
WISH percent inhibition ([1]; at 0.01 (nM)): 38 @ 0.01%
WISH percent inhibition ([1]; at 0.1 (nM)): 95 @ 0.1%

Compound: CS(=O)(=O)c1ccc(-c2nn3c(c2-c2ccc(F)cc2)Oc2ccccc2C3)cc1 [Example 6, 3-(4-Fluorophenyl)-2-(4-(methylsulphonyl)phenyl)-5H-pyrazolo[1,5-b][1,3]-benzoxazine]
r-hu COX1 percent inhibition ([2]; at 100 μM): 25 @ 100%
r-hu COX2 percent inhibition ([3]; at 100 nM): 82 @ 100%

Compound: CS(=O)(=O)c1ccc(-c2c(-c3ccc(F)cc3)c(OCc3ccccc3)nn2Cc2ccccc2)cc1 [Example 7, 4-(4-Fluorophenyl)-5-(4-(methylsulphonyl)phenyl)-3-benzyloxy-1-benzyl-1H-pyrazole]
inhibition at 100 µM [2, 4]: 26%
melting point: 174 to 175 °C
inhibition at 0.1 µM [3, 5]: 42%

Compound: CS(=O)(=O)c1ccc(-c2c(-c3ccc(F)cc3)c(OCc3ccc(F)cc3)nn2Cc2ccc(F)cc2)cc1 [Example 8, 4-(4-fluorophenyl)-5-(4-(methylsulphonyl)phenyl)-1-(4-fluorobenzyl)-3-((4-fluorobenzyl)oxy)-1H-pyrazole]
inhibition at 100 µM [2, 4]: 29%
inhibition at 10 µM ([3]; at 10000 nM, read-out: r-hu COX2 percent inhibition): 48%

Compound: CS(=O)(=O)c1ccc(-c2[nH]nc(OC3CCCCC3=O)c2-c2ccc(F)cc2)cc1 (stereo not shown) [Example 15, 2-{[4-(4-Fluorophenyl)-5-(4-methylsulphonylpheny)-1H-pyrazol-3-yl]oxy}cyclohexanone]
r-hu COX1 percent inhibition ([2]; at 10 μM): 69 @ 10%
r-hu COX2 percent inhibition ([3]; at 100 nM): 47 @ 100%

Compound: CCn1nc(OCC(=O)c2ccc(F)cc2)c(-c2ccc(F)cc2)c1-c1ccc(OC)cc1 [Example 18, 2-{[1-Ethyl-5-(4-methoxyphenyl)-4-(4-fluorophenyl)-1H-pyrazol-3-yl]oxy}-1-(4-fluorophenyl)ethan-1-one]
inhibition at 100 µM [2, 4]: 7%
melting point: 170 to 171 °C
inhibition at 0.1 µM [3, 5]: 50%

Compound: CS(=O)(=O)c1ccc(-c2c(-c3ccc(F)cc3)c(OCC(=O)c3cccs3)nn2CC(=O)c2cccs2)cc1 [Example 20A, 2-{4-(4-Fluorophenyl)-5-(4-(methylsulphonyl)phenyl)-3-[2-(2-thienyl)-2-oxoethoxy]-1H-pyrazol-1-yl}-1-(2-thienyl)ethan-1-one]
inhibition at 10 µM ([2]; at 10 μM, read-out: r-hu COX1 percent inhibition): 81%
melting point: 136 to 138 °C
inhibition at 0.1 µM [3, 5]: 38%

Compound: CCC(=O)COc1nn(CC(=O)CC)c(-c2ccc(S(C)(=O)=O)cc2)c1-c1ccc(F)cc1 [Example 34]
WISH percent inhibition ([1]; at 1 (nM)): 62 @ 1%

Compound: CCC(=O)COc1nn(CC(=O)CC)c(-c2ccc(F)cc2)c1-c1ccc(S(C)(=O)=O)cc1 [Example 77, 1-[5-(4-Fluorophenyl)-4-(4-(methylsulphonyl)phenyl)-3-(2-oxobutoxy)-1H-pyrazol-1-yl]butan-2-one]
melting point: 56 to 58 °C

Continued, in another order:

r-hu COX1 percent inhibition ([2]; at 100 μM): 12 @ 100%
r-hu COX2 percent inhibition ([3]; at 10000 nM): 62 @ 10000%
Compound: CS(=O)(=O)c1ccc(-c2nn3c(c2-c2ccc(F)cc2)OCC=CC3)cc1 [Example 4, 3-(4-Fluorophenyl)-2-(4-methylsulponylphenyl)-5,8-dihydropyrazolo[5,1-b][1,3]oxazepine]

inhibition at 100 µM [2, 4]: 36%
inhibition at 1 µM ([3]; at 1000 nM, read-out: r-hu COX2 percent inhibition): 62%
Compound: C=CCOc1nn(CC=C)c(-c2ccc(S(C)(=O)=O)cc2)c1-c1ccc(F)cc1 [Example 9, 1-allyl-3-(allyloxy)-4-(4-fluorophenyl)-5-(4-(methylsulphonyl)phenyl)-1H-pyrazole]

r-hu COX1 percent inhibition ([2]; at 100 μM): 45 @ 100%
r-hu COX2 percent inhibition ([3]; at 10000 nM): 37 @ 10000%
Compound: C=CCn1nc(Oc2ccccc2)c(-c2ccc(F)cc2)c1-c1ccc(S(C)(=O)=O)cc1 [Example 14, 1-Allyl-4-Fluorophenyl-5-(4-(methylsulphonyl)phenyl)-3-phenoxy-1H-pyrazole]

inhibition at 100 µM [2, 4]: 3%
melting point: 163 to 164 °C
pIC50 [3]: 7.51
Compound: CCn1nc(OCC(=O)c2cccs2)c(-c2ccc(F)cc2)c1-c1ccc(S(C)(=O)=O)cc1 [Example 21, 2-[(1-Ethyl-4-(4-fluorophenyl)-5-(4-(methylsulphonyl)phenyl)-1H-pyrazol-3-yl)oxy]-1-(2-thienyl)ethan-1-one]

inhibition at 100 µM [2, 4]: 0%
melting point: 146 to 148 °C
pIC50 [3]: 7.22
Compound: C=CCn1nc(OCC(=O)c2cccs2)c(-c2ccc(F)cc2)c1-c1ccc(S(C)(=O)=O)cc1 [Example 22, 2-[(1-Allyl-4-(4-fluorophenyl)-5-(4-(methylsulphonyl)phenyl)-1H-pyrazol-3-yl)oxy]-1-(2-thienyl)ethan-1-one]

inhibition at 100 µM [2, 4]: 20%
melting point: 210 to 211 °C
inhibition at 0.1 µM [3, 5]: 37%
Compound: CCn1nc(OC2CSCCC2=O)c(-c2ccc(F)cc2)c1-c1ccc(S(C)(=O)=O)cc1 (stereo not shown) [Example 24, 3-[(1-Ethyl-4-(4-fluorophenyl)-5-(4-(methylsulphonyl)phenyl)-1H-pyrazol-3-yl)oxy]tetrahydro-4H-thiopyran-4-one]

melting point: 156 to 158 °C
Compound: CC(C)(C)C(=O)COc1nn(CC=C(Cl)Cl)c(-c2ccc(S(C)(=O)=O)cc2)c1-c1ccc(F)cc1 [Example 26, 1-{[1-(3,3-Dichloroallyl)-4-(4-fluorophenyl)-5-(4-(methylsulphonyl)phenyl)-1H-pyrazol-3-yl]oxy}-3,3-dimethylbutan-2-one]
inhibition at 0.0001 µM ([1]; Homo sapiens, at 0.1 (nM), read-out: WISH percent inhibition): 64%

inhibition at 100 µM [2, 4]: 0%
melting point: 144 to 146 °C
pIC50 [3]: 8.30
Compound: CCn1nc(OCC(=O)C(C)(C)C)c(-c2ccc(F)cc2)c1-c1ccc(S(C)(=O)=O)cc1 [Example 27, 1-[(1-Ethyl-4-(4-fluorophenyl)-5-(4-(methylsulphonyl)phenyl)-1H-pyrazol-3-yl)oxy]-3,3-dimethylbutan-2-one]

inhibition at 100 µM [2, 4]: 54%
melting point: 196 to 198 °C
inhibition at 0.1 µM [3, 5]: 55%
Compound: CCn1nc(OCC(=O)C(C)(C)C)c(-c2ccc(F)cc2)c1-c1ccc(S(N)(=O)=O)cc1 [Example 29, 1-[(1-Ethyl-4-(4-fluorophenyl)-5-(4-(aminosulphonyl)phenyl)-1H-pyrazol-3-yl)oxy]-3,3-dimethylbutan-2-one]

r-hu COX1 percent inhibition ([2]; at 10 μM): 99 @ 10%
r-hu COX2 percent inhibition ([3]; at 100 nM): 88 @ 100%
Compound: CC(C)(C)c1coc2c(-c3ccc(F)cc3)c(-c3ccc(S(N)(=O)=O)cc3)nn12 [Example 55]

melting point: 205 to 208 °C
Compound: CCc1coc2c(-c3ccc(S(C)(=O)=O)cc3)c(-c3ccc(F)cc3)nn12 [Example 76, 6-(4-Fluorophenyl)-7-(4-(methylsulphonyl)phenyl)-3-ethylpyrazolo[5,1-b][1,3]oxazole]

melting point: 63 to 66 °C
Compound: CCn1nc(OCC(=O)C(C)(C)C)c(-c2ccc(S(C)(=O)=O)cc2)c1-c1ccc(F)cc1 [Example 78, 1-[(1-Ethyl-5-(4-fluorophenyl)-4-(4-(methylsulphonyl)phenyl)-1H-pyrazol-3-yl)oxy]-3,3-dimethylbutan-2-one]
